From patent US7018995B2, “Carbonate and carbamate modified forms of glucocorticoids” (Sepracor Inc., priority 2002, dated 2006)

Key:
rat paw edema = assay: Carrageenan rat paw edema model; assay type: in vivo; conditions: for onset of action / maximum activity at 24 hours: rat paw edema; for reduction of swelling (percent inhibition of edema volume vs vehicle): injected into paw
Method: The compounds of the invention were also tested in vivo in a rat paw edema model [Hirschelmann, R. and Bekemeier, H., Int J Tissue React 6, 471-475 (1984)], which persons of skill in the art accept as predictive of efficacy in treating asthma and rhinitis in humans.
Rat Paw Edema Protocol: Male Sprague Dawley rats Rj: SD (IOPS Han) (CEJ, France) weighing between 140 and 160 grams were used in the studies. Animals were housed in a temperature (19.5-24.5° C.), relative humidity (40-70%) and 12-hour light/dark cycle (light 6:00 a.m. to 6:00 p.m.)-controlled room, with ad libitum access to filtered tap-water and standard pelleted laboratory chow (U.A.R., France) throughout the studies. Carrageenan lambda type IV (Sigma, France) was prepared as a 2% (w/v) solution in saline. Compounds to be tested were dissolved in dimethylsulfoxide (DMSO) such that the indicated doses were in a final volume of 0.05 mL. Doses were expressed as mg/paw free active substance. From 17 to 19 hours before the studies the rats were fasted with free access to water. The paw volumes of the left hindpaws of the rats were measured using an electronic plethysmometer type 7140 (Ugo Basile-Italy) at time=0. Paw edema was then induced by injection of 0.05 mL of 2% carrageenan solution into the left hindpaws of the rats. Immediately after injection of the carrageenan, compounds in DMSO or vehicle alone were injected into the same paw in a volume of 0.05 mL in a blind and random fashion.
The paw volumes were measured at 1.5 hours, 3 hours, 4.5 hours and 24 hours after administration of the compounds. The edema volume of each rat at each time point was expressed as the change from the initial paw volume (time=0). A total of 5 rats were used for each compound dose and the average edema volume calculated for each dose. The anti-inflammatory effect in treated groups was expressed as the percent inhibition of edema volume compared to the vehicle-treated group at 1.5 hours, 3 hours, 4.5 hours and 24 hours.

[1] = test system: WI-38 human lung fibroblast line (IL-1β-stimulated PGE2); assay: Inhibition of IL-1β-stimulated PGE2 release in WI-38 cells; assay type: cell-based; conditions: WI-38 cells stimulated with recombinant human IL-1β, 24 hours incubation, PGE2 by EIA; read-out: IC50 (level of PGE2 in supernatants)
Method: Compounds as described above were tested in the following assay for biological activity. The WI-38 human lung fibroblast line was obtained from the ATCC (catalog number 75-CCL) and maintained in Basal Medium Eagle with Earle's salts (GibcoBRL product number 21010-046) supplemented with 2 mM glutamine and 10% fetal calf serum at 37° C. in a 7% CO2 (balance air), humidified atmosphere. One week before experiments were done, the WI-38 cells were seeded into 48-well tissue culture dishes and maintained in media containing 10% fetal calf serum. The cells were used when confluent. The day before the experiment the cells were fed fresh media containing 10% fetal calf serum (0.25 mL per well). On the day of the experiment the media was removed from the cells and 0.25 mL of media containing 5% fetal calf serum added.
To determine the IC50 values for the compounds, 1 to 1000 dilutions were made of the 5 mM stock solutions in DMSO to give 5 uM solutions. These solutions were serially diluted 1:2 in DMSO to give a series of 12 dilutions ranging from 5 uM to 2.4 nM. 0.0025 mL aliquots of the 12 dilutions were added to wells of the WI-38 cells to give final compound concentrations ranging from 50 nM to 0.024 nM. The cells were stimulated by addition of 0.001 mL of 0.025 ug/mL recombinant human Interleukin-1β (IL-1β-Calbiochem catalog number 407615) in 0.1% bovine serum albumin in phosphate buffered saline. The cells were incubated for 24 hours and the supernatants harvested. The level of PGE2 in the supernatants was assayed using a commercial Enzyme Immuno Assay (EIA) kit (Cayman Chemical catalog number 514010) after diluting 1:10 in EIA buffer according to the manufacturer's directions. The data from these experiments was fit to a 4 parameter logistic function using the IC50 routine in the Grafit 4 program (Erithecus software).

[2] = at 24 hours, equimolar doses equivalent to 10 μg per paw of budesonide, FIG. 1

Compound	maximum activity at 24 hours (rat paw edema) [%]	IC50 [1] [nM]	other results
Budesonide farnesolcarbonate [Example 17]	86		onset of action (rat paw edema): normal onset of action
Budesonide hexylcarbonate [Example 3]		0.14	
Budesonide dodecylcarbonate [Example 2]		0.53	reduction of swelling (percent inhibition of edema volume vs vehicle) (rat paw edema; [2]): 88%
CCCC1O[C@@H]2C[C@H]3[C@@H]4CCC5=CC(=O)C=C[C@]5(C)[C@H]4[C@@H](O)C[C@]3(C)[C@]2(C(=O)CO)O1 (stereo partly shown) [budesonide, reference compound]		0.2	reduction of swelling (percent inhibition of edema volume vs vehicle) (rat paw edema; [2]): 46%
Budesonide phytolcarbonate [Example 16]	69		onset of action (rat paw edema): normal onset of action
CCCC1OC2CC3C4CCC5=CC(=O)C=CC5(C)C4C(O)CC3(C)C2(C(=O)COC(=O)OCC(C)C)O1 (stereo not shown) [Example 1, Budesonide isobutylcarbonate]		0.12	
Budesonide heptylcarbonate [Example 14]			efficacy compared with the C6 carbonate ester (rat paw edema; [2]): more efficacious
CCCC1OC2CC3C4CCC5=CC(=O)C=CC5(C)C4C(O)CC3(C)C2(C(=O)COC(=O)OCCCCCCCCCCCN(C)C)O1 (stereo not shown) [Example 15, Budesonide 11-dimethylaminoundecylcarbonate]	73		
CCCCCCCCCCOC(=O)OCC(=O)[C@@]12OC(CCC)O[C@@H]1C[C@H]1[C@@H]3CCC4=CC(=O)C=C[C@]4(C)[C@H]3[C@@H](O)C[C@@]12C (stereo partly shown) [Example 8, Budesonide decylcarbonate]			more efficacious than budesonide itself (rat paw edema; [2]): 30%
